Measurements taken from ChEMBL document CHEMBL4024706 (Eur J Med Chem, 2017).

Columns and labels:
Pfeiffer [1] = assay: Growth inhibition of human Pfeiffer cells; format: functional; conditions: Homo sapiens, Pfeiffer
[2] = target: TGF-beta receptor type-2 (Homo sapiens) (UniProt P37173); assay: Inhibition of wild-type human partial length TGFBR2 (I218 to K567 residues) expressed in bacterial expression system assessed as residual activity at 1 uM by Kinomescan method relative to control
[3] = target: Non-receptor tyrosine-protein kinase TYK2 (Homo sapiens) (UniProt P29597); assay: Inhibition of wild-type human partial length TYK2 JH1 catalytic domain (V877 to C1187 residues) expressed in mammalian expression system assessed as residual activity at 1 uM by Kinomescan method relative to control
[4] = target: Platelet-derived growth factor receptor beta (Homo sapiens) (UniProt P09619); assay: Inhibition of wild-type human partial length PDGFRB (V582 to Y1009 residues) expressed in bacterial expression system assessed as residual activity at 1 uM by Kinomescan method relative to control
[5] = target: Focal adhesion kinase 1 (Homo sapiens) (UniProt Q05397); assay: Inhibition of wild-type human partial length FAK (D402 to R696 residues) expressed in bacterial expression system assessed as residual activity at 1 uM by Kinomescan method relative to control
Pfeiffer [6] = assay: Induction of apoptosis in human Pfeiffer cells assessed as induction of PARP cleavage after 48 hrs by immunoblot; format: functional, cell-based
[7] = target: 5'-AMP-activated protein kinase catalytic subunit alpha-1 (Homo sapiens) (UniProt Q13131); assay: Inhibition of wild-type human partial length AMPK alpha1 (M1 to E306 residues) expressed in bacterial expression system assessed as residual activity at 1 uM by Kinomescan method relative to control
[8] = target: Bone morphogenetic protein receptor type-2 (Homo sapiens) (UniProt Q13873); assay: Inhibition of wild-type human partial length BMPR2 (R179 to Q526 residues) expressed in mammalian expression system assessed as residual activity at 1 uM by Kinomescan method relative to control
[9] = target: Calcium/calmodulin-dependent protein kinase type 1 (Homo sapiens) (UniProt Q14012); assay: Inhibition of wild-type human full length CAMK1 (M1 to L370 residues) expressed in bacterial expression system assessed as residual activity at 1 uM by Kinomescan method relative to control
[10] = target: Serine/threonine-protein kinase ULK2 (Homo sapiens) (UniProt Q8IYT8); assay: Inhibition of wild-type human partial length ULK2 (M1 to S301 residues) expressed in mammalian expression system assessed as residual activity at 1 uM by Kinomescan method relative to control
[11] = target: Ephrin type-A receptor 1 (Homo sapiens) (UniProt P21709); assay: Inhibition of wild-type human partial length EPHA1 (V588 to I913 residues) expressed in bacterial expression system assessed as residual activity at 1 uM by Kinomescan method relative to control
[12] = target: Serine/threonine-protein kinase LATS2 (Homo sapiens) (UniProt Q9NRM7); assay: Inhibition of wild-type human partial length LATS2 (Q641 to V1088 residues) expressed in mammalian expression system assessed as residual activity at 1 uM by Kinomescan method relative to control
[13] = target: Serine/threonine-protein kinase pim-3 (Homo sapiens) (UniProt Q86V86); assay: Inhibition of wild-type human partial length PIM3 (G16 to A317 residues) expressed in bacterial expression system assessed as residual activity at 1 uM by Kinomescan method relative to control
[14] = system: Tyrosine-protein kinase ABL1 (Homo sapiens), P00519 [H396P]; assay: Inhibition of human phosphorylated ABL1 H396P mutant (S229 to K512 residues) expressed in mammalian expression system assessed as residual activity at 1 uM by Kinomescan method relative to control
[15] = target: Serine/threonine-protein kinase D1 (Homo sapiens) (UniProt Q15139); assay: Inhibition of wild-type human partial length PRKD1 (G551 to E870 residues) expressed in bacterial expression system assessed as residual activity at 1 uM by Kinomescan method relative to control
[16] = target: Casein kinase I isoform alpha (Homo sapiens) (UniProt P48729); assay: Inhibition of wild-type human partial length CSNK1A1 (M1 to L450 residues) expressed in mammalian expression system assessed as residual activity at 1 uM by Kinomescan method relative to control
[17] = target: Dual specificity mitogen-activated protein kinase kinase 6 (Homo sapiens) (UniProt P52564); assay: Inhibition of wild-type human partial length MEK6 (K36 to D334 residues) expressed in bacterial expression system assessed as residual activity at 1 uM by Kinomescan method relative to control
[18] = target: Serine/threonine-protein kinase ULK3 (Homo sapiens) (UniProt Q6PHR2); assay: Inhibition of wild-type human partial length ULK3 (M1 to Q290 residues) expressed in mammalian expression system assessed as residual activity at 1 uM by Kinomescan method relative to control
[19] = target: Tyrosine-protein kinase HCK (Homo sapiens) (UniProt P08631); assay: Inhibition of wild-type human full length HCK (M22 to P526 residues) expressed in bacterial expression system assessed as residual activity at 1 uM by Kinomescan method relative to control
[20] = system: Tyrosine-protein kinase ABL1 (Homo sapiens), P00519 [F317L]; assay: Inhibition of human non-phosphorylated ABL1 F317L mutant (S229 to K512 residues) expressed in mammalian expression system assessed as residual activity at 1 uM by Kinomescan method relative to control
[21] = target: RAC-beta serine/threonine-protein kinase (Homo sapiens) (UniProt P31751); assay: Inhibition of wild-type human partial length AKT2 expressed in bacterial expression system assessed as residual activity at 1 uM by Kinomescan method relative to control
[22] = target: Peripheral plasma membrane protein CASK (Homo sapiens) (UniProt O14936); assay: Inhibition of wild-type human partial length CASK (M1 to H315 residues) expressed in mammalian expression system assessed as residual activity at 1 uM by Kinomescan method relative to control
[23] = target: Serine/threonine-protein kinase WNK2 (Homo sapiens) (UniProt Q9Y3S1); assay: Inhibition of wild-type human partial length WNK2 (V47 to D482 residues) expressed in mammalian expression system assessed as residual activity at 1 uM by Kinomescan method relative to control
[24] = target: cGMP-dependent protein kinase 2 (Homo sapiens) (UniProt Q13237); assay: Inhibition of wild-type human partial length PRKG2 (S422 to F762 residues) expressed in mammalian expression system assessed as residual activity at 1 uM by Kinomescan method relative to control
[25] = target: Serine/threonine-protein kinase SIK1 (Homo sapiens) (UniProt P57059); assay: Inhibition of wild-type human partial length SIK (M1 to Y304 residues) expressed in bacterial expression system assessed as residual activity at 1 uM by Kinomescan method relative to control
[26] = target: Vascular endothelial growth factor receptor 3 (Homo sapiens) (UniProt P35916); assay: Inhibition of wild-type human partial length FLT4 (E821 to E1196 residues) expressed in bacterial expression system assessed as residual activity at 1 uM by Kinomescan method relative to control

Sequence of Serine/threonine-protein kinase LATS2 (Homo sapiens) (Q9NRM7 whole entry, the tested form may be a part): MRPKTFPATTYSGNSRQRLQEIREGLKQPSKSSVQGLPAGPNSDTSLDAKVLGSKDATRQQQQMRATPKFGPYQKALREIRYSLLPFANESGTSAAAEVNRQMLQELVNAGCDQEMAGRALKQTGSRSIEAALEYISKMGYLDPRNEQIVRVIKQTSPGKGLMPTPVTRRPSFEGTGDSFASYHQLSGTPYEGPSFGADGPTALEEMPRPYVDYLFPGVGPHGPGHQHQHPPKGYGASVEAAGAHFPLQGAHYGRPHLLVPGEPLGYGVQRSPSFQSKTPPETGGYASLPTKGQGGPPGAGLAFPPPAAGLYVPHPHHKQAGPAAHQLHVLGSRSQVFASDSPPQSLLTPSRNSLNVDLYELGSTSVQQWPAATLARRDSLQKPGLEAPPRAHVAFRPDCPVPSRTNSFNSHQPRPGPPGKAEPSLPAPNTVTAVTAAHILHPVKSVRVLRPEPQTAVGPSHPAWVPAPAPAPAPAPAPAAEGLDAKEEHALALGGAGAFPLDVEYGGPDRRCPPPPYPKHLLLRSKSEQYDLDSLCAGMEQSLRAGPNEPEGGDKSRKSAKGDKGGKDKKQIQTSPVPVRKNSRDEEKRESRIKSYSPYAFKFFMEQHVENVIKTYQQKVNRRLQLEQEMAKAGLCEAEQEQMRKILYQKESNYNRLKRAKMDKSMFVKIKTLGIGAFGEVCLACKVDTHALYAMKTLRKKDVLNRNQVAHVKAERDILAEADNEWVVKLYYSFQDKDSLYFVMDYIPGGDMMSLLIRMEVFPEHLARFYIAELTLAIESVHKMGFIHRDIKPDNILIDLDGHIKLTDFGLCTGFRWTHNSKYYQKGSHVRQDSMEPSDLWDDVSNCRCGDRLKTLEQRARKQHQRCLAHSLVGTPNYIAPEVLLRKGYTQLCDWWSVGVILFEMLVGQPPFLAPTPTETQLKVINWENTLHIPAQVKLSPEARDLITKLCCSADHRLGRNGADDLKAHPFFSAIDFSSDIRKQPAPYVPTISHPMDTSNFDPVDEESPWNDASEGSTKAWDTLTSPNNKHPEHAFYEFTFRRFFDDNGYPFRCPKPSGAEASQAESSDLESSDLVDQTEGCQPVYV
Sequence of Serine/threonine-protein kinase ULK3 (Homo sapiens) (Q6PHR2 whole entry, the tested form may be a part): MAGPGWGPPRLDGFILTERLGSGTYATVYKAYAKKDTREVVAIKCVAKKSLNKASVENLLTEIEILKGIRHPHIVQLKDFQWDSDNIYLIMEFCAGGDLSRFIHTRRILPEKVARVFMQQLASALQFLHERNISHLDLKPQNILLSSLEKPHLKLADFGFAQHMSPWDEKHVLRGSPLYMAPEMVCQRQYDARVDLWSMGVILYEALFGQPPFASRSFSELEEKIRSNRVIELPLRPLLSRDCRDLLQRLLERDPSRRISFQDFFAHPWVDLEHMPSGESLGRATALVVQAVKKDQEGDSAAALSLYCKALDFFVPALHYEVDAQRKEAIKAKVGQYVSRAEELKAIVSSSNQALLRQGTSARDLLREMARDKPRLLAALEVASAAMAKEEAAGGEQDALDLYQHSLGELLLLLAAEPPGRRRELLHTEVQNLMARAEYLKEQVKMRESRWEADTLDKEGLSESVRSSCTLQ
Sequence of Casein kinase I isoform alpha (Homo sapiens) (P48729 2-337 limits assumed): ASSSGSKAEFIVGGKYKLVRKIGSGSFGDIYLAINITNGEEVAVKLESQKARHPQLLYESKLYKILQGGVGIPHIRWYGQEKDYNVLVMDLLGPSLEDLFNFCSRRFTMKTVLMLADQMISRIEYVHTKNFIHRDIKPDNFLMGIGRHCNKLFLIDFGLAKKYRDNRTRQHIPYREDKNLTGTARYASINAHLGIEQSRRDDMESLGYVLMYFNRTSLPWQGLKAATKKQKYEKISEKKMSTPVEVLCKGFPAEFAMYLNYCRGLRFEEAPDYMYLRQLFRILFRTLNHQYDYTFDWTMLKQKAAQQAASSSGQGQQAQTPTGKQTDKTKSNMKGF
Sequence of TGF-beta receptor type-2 (Homo sapiens) (P37173 whole entry, the tested form may be a part): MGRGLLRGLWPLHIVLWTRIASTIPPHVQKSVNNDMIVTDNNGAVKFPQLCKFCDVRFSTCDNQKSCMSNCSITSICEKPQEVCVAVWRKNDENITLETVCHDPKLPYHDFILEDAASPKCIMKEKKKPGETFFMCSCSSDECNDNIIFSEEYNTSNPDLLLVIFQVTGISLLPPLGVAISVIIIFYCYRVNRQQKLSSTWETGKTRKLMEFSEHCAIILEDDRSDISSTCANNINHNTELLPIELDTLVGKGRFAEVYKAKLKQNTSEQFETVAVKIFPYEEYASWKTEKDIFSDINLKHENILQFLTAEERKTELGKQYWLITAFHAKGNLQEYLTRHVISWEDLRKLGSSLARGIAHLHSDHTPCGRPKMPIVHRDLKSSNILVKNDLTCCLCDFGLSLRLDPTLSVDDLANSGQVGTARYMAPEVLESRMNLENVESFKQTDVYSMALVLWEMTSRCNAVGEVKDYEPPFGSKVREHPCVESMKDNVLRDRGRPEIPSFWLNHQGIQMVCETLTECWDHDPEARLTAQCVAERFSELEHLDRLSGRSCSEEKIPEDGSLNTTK
Sequence of Dual specificity mitogen-activated protein kinase kinase 6 (Homo sapiens) (P52564 whole entry, the tested form may be a part): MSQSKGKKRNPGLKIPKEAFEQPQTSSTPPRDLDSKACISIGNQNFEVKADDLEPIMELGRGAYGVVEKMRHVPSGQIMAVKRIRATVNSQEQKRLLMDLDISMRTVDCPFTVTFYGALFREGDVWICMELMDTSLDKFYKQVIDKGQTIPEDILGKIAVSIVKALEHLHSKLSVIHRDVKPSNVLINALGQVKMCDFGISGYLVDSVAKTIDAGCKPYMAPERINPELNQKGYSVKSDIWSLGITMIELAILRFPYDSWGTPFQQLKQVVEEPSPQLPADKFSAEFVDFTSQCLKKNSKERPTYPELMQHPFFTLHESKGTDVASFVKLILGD
Sequence of RAC-beta serine/threonine-protein kinase (Homo sapiens) (P31751 whole entry, the tested form may be a part): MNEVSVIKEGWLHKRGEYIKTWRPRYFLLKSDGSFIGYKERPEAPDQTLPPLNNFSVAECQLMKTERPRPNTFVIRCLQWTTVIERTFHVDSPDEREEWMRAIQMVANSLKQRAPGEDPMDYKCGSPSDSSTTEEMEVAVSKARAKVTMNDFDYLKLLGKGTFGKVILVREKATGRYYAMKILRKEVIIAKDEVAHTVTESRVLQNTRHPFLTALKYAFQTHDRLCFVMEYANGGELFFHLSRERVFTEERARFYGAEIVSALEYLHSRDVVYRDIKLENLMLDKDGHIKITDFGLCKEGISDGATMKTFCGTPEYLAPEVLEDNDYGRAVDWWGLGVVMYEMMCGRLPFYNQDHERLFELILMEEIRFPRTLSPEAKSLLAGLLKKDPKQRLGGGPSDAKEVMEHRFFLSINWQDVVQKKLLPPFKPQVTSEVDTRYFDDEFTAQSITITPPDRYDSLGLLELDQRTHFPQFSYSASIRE
Sequence of Non-receptor tyrosine-protein kinase TYK2 (Homo sapiens) (P29597 whole entry, the tested form may be a part): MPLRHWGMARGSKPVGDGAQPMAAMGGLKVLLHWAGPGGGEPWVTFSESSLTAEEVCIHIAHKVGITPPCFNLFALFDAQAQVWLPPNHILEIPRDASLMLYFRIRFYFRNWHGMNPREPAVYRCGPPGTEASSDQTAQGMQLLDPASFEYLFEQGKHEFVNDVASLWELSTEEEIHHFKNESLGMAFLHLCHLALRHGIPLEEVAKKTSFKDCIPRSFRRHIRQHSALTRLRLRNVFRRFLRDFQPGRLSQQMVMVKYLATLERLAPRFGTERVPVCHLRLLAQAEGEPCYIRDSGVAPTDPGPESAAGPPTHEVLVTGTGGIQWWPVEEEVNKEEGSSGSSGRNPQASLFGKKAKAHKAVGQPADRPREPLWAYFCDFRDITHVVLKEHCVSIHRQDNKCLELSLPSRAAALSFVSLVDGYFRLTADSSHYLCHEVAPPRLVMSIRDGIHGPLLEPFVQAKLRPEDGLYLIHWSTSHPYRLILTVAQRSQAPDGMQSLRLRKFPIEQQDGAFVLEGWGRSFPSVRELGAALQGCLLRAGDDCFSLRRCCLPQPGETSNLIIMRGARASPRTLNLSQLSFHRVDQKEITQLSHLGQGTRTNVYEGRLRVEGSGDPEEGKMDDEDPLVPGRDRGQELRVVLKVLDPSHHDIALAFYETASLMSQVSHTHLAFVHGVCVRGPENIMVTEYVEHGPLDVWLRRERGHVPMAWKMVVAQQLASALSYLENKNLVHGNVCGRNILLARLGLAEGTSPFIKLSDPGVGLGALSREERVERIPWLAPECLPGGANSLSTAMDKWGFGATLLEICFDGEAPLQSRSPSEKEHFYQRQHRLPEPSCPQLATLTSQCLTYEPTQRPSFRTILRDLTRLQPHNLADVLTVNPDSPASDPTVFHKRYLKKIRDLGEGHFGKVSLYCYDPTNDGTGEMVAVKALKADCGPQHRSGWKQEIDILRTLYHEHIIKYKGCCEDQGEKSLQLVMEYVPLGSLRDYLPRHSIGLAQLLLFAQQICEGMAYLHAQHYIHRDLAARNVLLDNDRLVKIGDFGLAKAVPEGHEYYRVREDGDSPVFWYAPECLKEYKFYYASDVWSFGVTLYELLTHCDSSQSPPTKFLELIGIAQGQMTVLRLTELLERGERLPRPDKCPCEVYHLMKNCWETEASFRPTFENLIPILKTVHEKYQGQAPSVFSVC
Sequence of Tyrosine-protein kinase HCK (Homo sapiens) (P08631 2-526 limits assumed): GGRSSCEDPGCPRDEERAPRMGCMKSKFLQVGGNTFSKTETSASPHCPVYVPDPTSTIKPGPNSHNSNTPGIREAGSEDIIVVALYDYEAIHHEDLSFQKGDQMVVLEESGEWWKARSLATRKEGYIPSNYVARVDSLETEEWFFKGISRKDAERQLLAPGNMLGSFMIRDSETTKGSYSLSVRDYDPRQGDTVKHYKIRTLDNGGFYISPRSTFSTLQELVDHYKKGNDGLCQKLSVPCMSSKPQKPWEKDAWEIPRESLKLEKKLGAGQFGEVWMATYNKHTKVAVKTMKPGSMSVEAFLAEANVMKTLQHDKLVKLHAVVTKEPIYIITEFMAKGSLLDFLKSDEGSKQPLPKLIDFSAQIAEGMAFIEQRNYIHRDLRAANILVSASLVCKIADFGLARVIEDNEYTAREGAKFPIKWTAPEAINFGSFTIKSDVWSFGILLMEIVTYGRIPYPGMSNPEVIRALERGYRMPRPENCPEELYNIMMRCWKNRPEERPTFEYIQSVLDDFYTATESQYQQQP

C=CC(=O)Nc1cc(Nc2cc(-c3cccc(NC(=O)c4ccc(C(C)(C)C)cc4)c3C)cn(C)c2=O)ccc1C(=O)N1CCOCC1
GI50 (Pfeiffer [1]): 4.5 µM | Activity [2]: 90% | Activity [3]: 74% | Activity [4]: 92% | Activity [5]: 96% | Activity (Pfeiffer [6]): Dose-dependent effect | Activity [7]: 89% | Activity [8]: 93% | Activity [9]: 92% | Activity [10]: 80% | Activity [11]: 100% | Activity [12]: 100% | Activity [13]: 98% | Activity [14]: 100% | Activity [15]: 100% | Activity [16]: 100% | Activity [17]: 100% | Activity [18]: 99% | Activity [19]: 100% | Activity [20]: 88% | Activity [21]: 95% | Activity [22]: 95% | Activity [23]: 99% | Activity [24]: 96% | Activity [25]: 93% | Activity [26]: 100%
